Measured values published in patent US20070015771A1, “Lonidamine analogs” (Threshold pharmaceuticals, Inc., priority 2004, published 2007).

Columns and labels:
PWR-1E cells = assay: BrdU-TUNEL apoptosis assay; assay type: cell-based; settings: for % Non-apoptotic cells / % apoptotic cells: PWR-1E cells, 24 h
Procedure: The effect of compound 1 (as described in Example 1 above) on apoptosis was determined as follows. PWR-1E cells (2×10^5 cells/ml/well) were seeded in a 24 well plate. The culture media were removed after 24 h, the cells were rinsed with PBS buffer (200 μL) and incubated (5 min, 37° C.) with a solution of Guava Viacount CDR in PBS (1:3 v/v). Media (750 μL) containing at least 5% FBS was added to each well, the cells released by repeated pipeting, centrifuged, and the supernatant aspirated. The cells were resuspended in PBS buffer (150 μL) and fixed by incubating (60 min, 4° C.) with 4% paraformaldehyde in PBS. The cells were centrifuged, and the supernatant removed to a final volume of 15 μL. The cell pellets were resuspended, followed by dropwise addition of 200 μl of ice-cold ethanol (70%), and the cells incubated at −20° C. at least for 2 hr. The cells were centrifuged, the supernatant removed, washed, and incubated with the DNA labeling mix (37° C., 60 min). The cells were washed, incubated (30 min) with anti-BrdU staining mix, washed again and analyzed on a Guava PCA-96 system (Guava Technologies, 25801 Industrial Boulevard, Hayward Calif. 94545-2991, USA).

SH rat prostate = assay: 5 day systemic administration in male SH rats, prostate; assay type: in vivo; settings: male SH rats, oral daily for 5 days at 50 mg/ml, day 6
Procedure: The effect of test compounds (lonidamine and lonidamine analogs) on the SH rat prostate was determined as follows. The test compound was orally administered daily for 5 days to male, SH rat, (n=6, 14 weeks old, Charles River Labs) at 50 mg/ml concentrations (as a 0.5% carboxymethylcellulose formulation). The control rats received an equal amount of the vehicle ([…]). Blood samples were collected 2 hours after administration on day 6, for pharmokinetic analysis of the compounds. On day 6 the rats were sacrificed and the entire prostate and the individual lobes (e.g., the ventral, dorso-lateral, and anterior lobes) were removed and weighed to measure absolute weights. Relative weights of prostate and individual lobes were calculated by dividing the absolute weight by the total body weight of the […]. Relative weights of the entire prostate, the dorsal prostate, and the ventral prostate were calculated by dividing the absolute weight by the total weight of the mouse. The histomorphology of the prostate was also analyzed and compared to that of the control or untreated prostate.

DU-145 cells = assay: Antiproliferation assay 3 days, DU-145 cells; assay type: cell-based; settings: 3 day treatment; read-out: Du-145 cell line IC50
Procedure: To determine the effect of lonidamine analogs thereof on cell proliferation, the antiproliferative activity of these compounds was tested in a multi-well Alamar Blue based assay (at 3 days). Cell growth in the presence and absence of the test compound was compared, as measured by a fluoresence plate reader at excitation 550 nm and emission 590 nm (see Biosource International Inc., Tech Application Notes, Use of Alamar Blue in the measurement of Cell Viability and Toxity, Determining IC50). The following cell lines were tested: PWR-1E cells ((ATCC CRL-11611), 3500 cells/well/200 μl in Keratinocyte SFM medium (Gibco Products, Invitrogen Corporation, Carlsbad, Calif.)); DU-145 cells ((ATCC HTB-81), 4000 cells/well/200 μl in MEM Eagles medium (ATCC, Manassas, Va.)); PC3 cells ((ATCC CRL-1435), 4000 cells/200 μl in Modified HAM's F12 medium (ATCC, Manassas, Va.)); PNt2 cells ((Sigma-Aldrich, 95012613-1 VL), 4000 cells/well/200 μl in RPMI medium (Gibco Products, Invitrogen Corporation, Carlsbad, Calif.), BPH-1 ((DSMZ ACC-143), 4000 cells/well/200 μl in RPMI medium (Gibco Products, Invitrogen Corporation, Carlsbad, Calif), and NCI-H460 cells ((ATCC HTB-177), 4000 cells/well/200 μl in RPMI medium (Gibco Products, Invitrogen Corporation, Carlsbad, Calif.)). The cells were seeded in a 96 well plate in a medium specified above. After 24 hours, these plates were divided into 2 groups—Control group and 3 day treatment group. A test compound was added to each plate in the treatment groups at concentrations of […] as tabulated in Table 1 (in 2 μl 1 of 100% DMSO, final DMSO concentration 1% in all wells). For NCI-H460 cells, test compounds were added to each plate in the treatment groups at concentrations of 600, 300, 100, 30, 10, 3, and 1 μM (in 2 μl of 100% DMSO, final DMSO concentration 1% in all wells). The cells in the 3 day treatment group were incubated for 3 days, followed by staining with AlamarBlue. In the Control group, AlamarBlue was added to the plate at (i) day 0 and (ii) day 3 and measured to establish the control reading. […] For the NCI-H460 cells, the capacity of the cells to proliferate was measured 5 hours after addition of AlamarBlue using the same fluorescence plate reader as stated above.

LNCaP cells = assay: Antiproliferation assay (Alamar Blue), LNCaP cells; assay type: cell-based, human; settings: 3 day treatment, read-out: GI50 LNCaP cell 3days
Procedure: To determine the effect of lonidamine and analogs thereof on cell proliferation, the antiproliferative activity of these compounds was tested in a multi-well Alamar Blue based assay (at 2 h and 3 days). Cell growth in the presence and absence of the test compound (compounds 1-22) was compared, as measured by a fluorescence plate reader at excitation 550 nm and emission 590 nm (see Biosource International Inc., Tech Application Notes, Use of Alamar Blue in the measurement of Cell Viability and Toxicity, Determining IC50). H460 cells (ATCC HTB-177 ([…]), 4,000 cells/well/200 μl) and LNCap cells (ATCC CRL-1740, 6,000 cells/well/200 μl) were seeded in a 96 well plate in RPMI medium (Invitrogen Corporation, Carlsbad, Calif.). After 24 hours, these plates were divided into 3 groups—Control group, 2 h treatment group and 3 day treatment group. In the 2 h treatment group, after 2 h the cells were rinsed to remove the test compound and incubated for 3 days, followed by staining with AlamarBlue. The cells in the 3 day treatment group were incubated for 3 days, followed by staining with AlamarBlue. In the Control group, AlamarBlue was added to the plate at (i) day 0 and (ii) day 3 and measured to establish the control reading.

## O=C(NO)c1nn(Cc2ccc(Cl)cc2Cl)c2ccccc12 [Compound 1]
PWR-1E cells; PWR1E cells
  apoptosis in PWR1E cells: induces apoptosis
PWR-1E cells; 3.1 μM
  % Non-apoptotic cells: 90%
  % apoptotic cells: 10%
PWR-1E cells; 6.2 μM
  % Non-apoptotic cells: 88%
  % apoptotic cells: 12%
PWR-1E cells; 12.5 μM
  % Non-apoptotic cells: 78%
  % apoptotic cells: 22%
PWR-1E cells; 25 μM
  % Non-apoptotic cells: 48%
  % apoptotic cells: 52%
SH rat prostate
  Prostate shrinkage: −4.8%
DU-145 cells
  IC50: 11 µM
LNCaP cells
  GI50: 40 µM
